The source made the active and inactive calls.
Key:
HEK293 = test: optical interference in Abeta FP readout, dose response, artefact control for IDE activator project, biochemical, fluorescence polarization (AID 588442); type: functional, cell-based; conditions: Homo sapiens
[1] = molecular target: UDP-galactopyranose mutase (Mycobacterium tuberculosis, UniProt P9WIQ1); test: Inhibitors of Mycobacterium tuberculosis UDP-galactopyranose mutase (UGM) enzyme Measured in Biochemical System Using Plate Reader - 2105-02_Inhibitor_Dose_CherryPick_Activity. [Related pubchem assays (depositor defined):AID504439]
[2] = molecular target: Eukaryotic translation initiation factor 4E (Mus musculus, UniProt P63073); test: blockers of eIF4G binding by eIF4E – biochemical, TR-FRET, dose response (AID 855); type: functional;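 further: potency for disrupting eIF4E binding to eIF4GI seen as loss of FRET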
Streptococcus = test: GAS UMAA2166 growth inhibition – luminescence, BacTiterGlo, counter-screen for streptokinase expression inhibitor project, dose response (AID 1915); type: functional, organism-based;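 further: potency for reduction of bacterial viability or growth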
[3] = luciferase reporter signal suppression in cells – H4 neuroglioma cells, luminescence, dose response (AID 1990); type: functional, cell-based

Eukaryotic translation initiation factor 4E, sequence (P63073 whole entry): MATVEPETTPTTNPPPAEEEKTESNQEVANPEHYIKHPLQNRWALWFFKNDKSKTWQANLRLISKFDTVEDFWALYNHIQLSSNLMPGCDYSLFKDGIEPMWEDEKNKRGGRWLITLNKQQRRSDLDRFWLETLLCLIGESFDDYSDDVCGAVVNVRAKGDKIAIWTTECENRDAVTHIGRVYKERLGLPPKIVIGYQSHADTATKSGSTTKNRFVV
UDP-galactopyranose mutase, sequence (P9WIQ1 whole entry): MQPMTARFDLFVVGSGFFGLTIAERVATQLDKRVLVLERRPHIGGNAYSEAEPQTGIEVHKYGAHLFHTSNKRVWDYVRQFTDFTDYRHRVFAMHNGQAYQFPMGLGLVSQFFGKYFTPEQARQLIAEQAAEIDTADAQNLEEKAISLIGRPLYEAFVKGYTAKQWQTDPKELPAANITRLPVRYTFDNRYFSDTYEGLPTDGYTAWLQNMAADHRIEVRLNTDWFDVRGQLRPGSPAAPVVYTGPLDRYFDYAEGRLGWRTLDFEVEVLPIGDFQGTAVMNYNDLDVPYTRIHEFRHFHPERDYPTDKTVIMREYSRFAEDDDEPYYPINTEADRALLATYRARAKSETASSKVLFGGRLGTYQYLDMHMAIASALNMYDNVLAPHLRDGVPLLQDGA

**Q.** For O=C1CCN2C=Nc3cccc4ccc1c2c34, which EC50 (HEK293) is on record?
**A.** Its EC50 is 17 µM (inactive).

**Q.** What about the AC50 [1] of the same compound?
**A.** The AC50 was 2.33 µM (active).

**Q.** For CC(C)C(C(=O)O)N1C(=O)/C(=C/C=C/c2ccco2)SC1=S (stereo not given), which IC50 [2] is on record?
**A.** The IC50 was 11.3 µM (active).

**Q.** With Oc1ccc2ccccc2c1/C=N/Nc1nnc(-c2ncc[nH]2)c2ccccc12 as the compound, how does the EC50 (Streptococcus) read?
**A.** The EC50 was 5.84 µM (active).

**Q.** And the EC50 [3]?
**A.** The EC50 was 0.178 µM (active).
